{"source": "patent US9074255B2", "about": "“Method of predicting a predisposition to QT prolongation” (Vanda Pharmaceuticals, Inc., priority 2009, dated 2015)", "key": {"QT interval [1]": {"test_system": "QT interval", "experiment": "FAM13A1 SNP genotypes and QT prolongation (QTcF) following administration of iloperidone", "assay_type": "in vivo, human", "experimental": "(§1) Since the QT interval changes with changes in heart rate, the QT interval is often measured as a corrected QT (QTc) interval. Any number of formulas may be employed to calculate the QTc, including, for example, the Fridericia formula (QTcF), the Bazett formula (QTcB), and the Rautaharju formula (QTp), among others. In the studies described herein, QT was calculated using the Fridericia formula. However, the present invention includes the use of any such formula or method for calculating a QTc or an uncorrected QT."}, "QT interval [2]": {"test_system": "QT interval", "experiment": "QT prolongation vs presence or absence of TT genotype at rs3775378 in 174 individuals given iloperidone", "assay_type": "in vivo, human", "conditions": "24 mg/day B.I.D. oral, two weeks", "experimental": "as §1, with “QT. Using the genotypes at the SNP loci above, it is possible, with a high degree of certainty, to predict an individual's predisposition to QT prolongation.” for “QT.”"}}, "data": [{"smiles": "COc1cc(C(C)=O)ccc1OCCCN1CCC(c2noc3cc(F)ccc23)CC1", "note": "[iloperidone, 1-[4-[3-[4-(6-fluoro-1,2-benzisoxazol-3-yl)-1-piperidinyl]propoxy]-3-methoxyphenyl]ethanone]", "values": [{"measurement": "Lowest QTc change (genotype)", "setting": "QT interval [1]; SNP_A-1824897, rs10008568, allele A=A, B=G", "value": "nonAB"}, {"measurement": "Lowest QTc change (genotype)", "setting": "QT interval [1]; SNP_A-1906173, rs3775378, allele A=C, B=T", "value": "non-BB"}, {"measurement": "Lowest QTc change (genotype)", "setting": "QT interval [1]; SNP_A-1943446, rs17014602, allele A=C, B=G", "value": "non-AA"}, {"measurement": "Lowest QTc change (genotype)", "setting": "QT interval [1]; SNP_A-1977994, rs17014483, allele A=C, B=T", "value": "non-BB"}, {"measurement": "Lowest QTc change (genotype)", "setting": "QT interval [1]; SNP_A-2152738, rs1458553, allele A=A, B=G", "value": "nonAA"}, {"measurement": "Lowest QTc change (genotype)", "setting": "QT interval [1]; SNP_A-2190887, rs2609260, allele A=A, B=G", "value": "nonAB"}, {"measurement": "Lowest QTc change (genotype)", "setting": "QT interval [1]; SNP_A-4287986, rs2609265, allele A=C, B=T", "value": "nonAB"}, {"measurement": "Lowest QTc change (genotype)", "setting": "QT interval [1]; SNP_A-4290819, rs17014687, allele A=C, B=T", "value": "non-BB"}, {"measurement": "Lowest QTc change (genotype)", "setting": "QT interval [1]; SNP_A-4291320, rs2609264, allele A=C, B=T", "value": "nonAB"}, {"measurement": "Lowest QTc change (genotype)", "setting": "QT interval [1]; SNP_A-4296194, rs12507401, allele A=C, B=G", "value": "non-AA"}, {"measurement": "High QT, + test (number of individuals)", "setting": "QT interval [2]; Change threshold QT > 5 msec", "value": 9}, {"measurement": "High QT, − test (number of individuals)", "setting": "QT interval [2]; Change threshold QT > 5 msec", "value": 101}, {"measurement": "Low QT, + test (number of individuals)", "setting": "QT interval [2]; Change threshold QT > 5 msec", "value": 0}, {"measurement": "Low QT, − test (number of individuals)", "setting": "QT interval [2]; Change threshold QT > 5 msec", "value": 63}, {"measurement": "High QT, + test (number of individuals)", "setting": "QT interval [2]; Change threshold QT > 15 msec", "value": 8}, {"measurement": "High QT, − test (number of individuals)", "setting": "QT interval [2]; Change threshold QT > 15 msec", "value": 59}, {"measurement": "Low QT, + test (number of individuals)", "setting": "QT interval [2]; Change threshold QT > 15 msec", "value": 1}, {"measurement": "Low QT, − test (number of individuals)", "setting": "QT interval [2]; Change threshold QT > 15 msec", "value": 105}, {"measurement": "High QT, + test (number of individuals)", "setting": "QT interval [2]; Change threshold QT > 30 msec", "value": 6}, {"measurement": "High QT, − test (number of individuals)", "setting": "QT interval [2]; Change threshold QT > 30 msec", "value": 22}, {"measurement": "Low QT, + test (number of individuals)", "setting": "QT interval [2]; Change threshold QT > 30 msec", "value": 3}, {"measurement": "Low QT, − test (number of individuals)", "setting": "QT interval [2]; Change threshold QT > 30 msec", "value": 142}]}]}
